Measurements: PMC12718261, “New Fluorescent Synthetic Retinoids as Potential RAR Agonists with Anticancer, Molecular Docking and ADME Assessments” (Journal of Fluorescence, 2025)
Values joined by “and” are separate entries in the source; they are usually repeats but may differ in a detail not shown here. Identical values can stand only once.

Tests used:
Format in all cases: cell-based
Caco-2 cancer cells [1] = assay: Cell cycle assay PI staining flow cytometry; settings: Caco-2, IC50 dose, 24 h
Procedure: The standard protocol used in HSBR was performed. […] Cells were concentrated at 1500 xg and suspended in 50 μg/ml propidium iodide (PI) staining solution and 20 µg/ml RNaseA to identify cells with a sub-G1 DNA content. Cytoflex flow cytometer (Beckman Coulter, USA) was used, and CytExpert software (version 2.4.0.28) was employed for data analysis. The gating strategy used to eliminate doublets depends on plotting the population against a 2D contour plot in four quadrants, referred to as Q1(LL), Q2 (LR), Q3 (UL), and Q4 (UR), that illustrates the spread of the Annexin-FITC-H core cell population against PI PE-H.

[2] = system: WI-38 normal human fibroblast cells; assay: MTT cytotoxicity assay on normal fibroblasts; settings: WI-38 normal fibroblast cells, 24 h, mean ± SEM
Procedure: (§1) The antiproliferation and cytotoxicity were assessed using 3-(4,5-dimethylthiazol-2-yl)−2,5-diphenyltetrazolium bromide (MTT, Serva) colorimetric assay. All tested cancer cell lines were seeded at a density of 20,000 cells per well in 96-well plates and allowed to adhere overnight. The attached cells were treated with five serial dilutions (100, 50, 5, 0.5, and 0.1 μM) in triplicate. These concentrations were prepared by diluting the stock solutions with serum-free culture media. The negative control cells were those treated with 0.1% DMSO solvent alone. The treated cells were handled in reduced light and maintained under standard culture growth conditions for 24 h. After the incubation period, MTT powder was prepared as a stock solution (5 mg/mL), and 20 μL of the MTT working reagent (final concentration 0.5 mg/mL) was added to each well. This was followed by incubation with MTT reagent for 4 h in a humidified atmosphere (37 °C, 5% CO2) with subsequent addition of 150 μL of DMSO solubilizing solvent and incubation for 20 min. The absorbance of solubilized violet formazan crystals was measured at 570 nm with a Biotek 800 TS microplate reader. IC50 was calculated as the concentration of retinoid that produced 50% cell growth inhibition. For cytotoxicity assessment, WI-38 normal human fibroblast cells were used for the calculation of SI, which is the ratio of IC50 retinoid (WI-38)/IC50 retinoid (cancer cell line).

Caco-2 cancer cells [3] = assay: Apoptosis assay Annexin V/PI flow cytometry; settings: Caco-2, IC50 dose, 24 h, AV/PI
Procedure: The standard protocol used in HSBR was performed. […] Cells were rinsed with 1 mL of binding buffer; the cells were again suspended in phosphate-buffered saline (PBS) (Lonza). 100 µL of cell suspension was incubated with 1 µL of FITC-labeled Annexin-V and 5 µL of PI for 15 min at 4 °C in the dark. The suspension was then mixed with 400 µL of ice-cold binding buffer, and each sample's apoptotic cells were analyzed using a Cytoflex flow cytometer (Beckman Coulter, USA), and CytExpert software (version 2.4.0.28) was employed for data analysis.

[4] = system: calcium-independent ATPases in Caco-2 cells; assay: Calcium-independent ATPase activity, malachite green colorimetric; settings: Caco-2, IC50 dose, 24 h; 0.1% DMSO control normalized to 100%
Procedure: (§2) The total activity of ATPase and calcium-independent ATPase activity was quantified colorimetrically as described by our previous protocol. […] The inorganic phosphate (Pi) liberated after the hydrolysis of ATP by ATPase enzymes was complexed into a colored product in one step after the addition of a mixed reagent containing malachite green, ammonium molybdate, and polyvinyl alcohol (2:1:1). The intensity of absorbance at 630 nm was measured using the BioTek 800 TS absorbance plate reader (USA) and was directly proportional to the quantity of liberated Pi. In order to eliminate any color due to the non-enzymatic hydrolysis of ATP, control reactions were made using only ATP in the reaction buffer, and the absorbance intensity was then subtracted from the readings of the samples and standards.

[5] = system: CRABPII gene in Caco-2 cells; assay: Gene expression RT-qPCR; settings: Caco-2, IC50 dose, 24 h, relative to 0.1% DMSO, normalized to GAPDH
Procedure: (§3) The gene expression analysis was performed using real-time quantitative PCR (RT-qPCR), as previously documented. After incubation, cells were harvested, and total RNA was extracted using the Favor-PrepTM Blood/Cultured Cell Total RNA Purification Mini kit (Favorgen Biotech Corp., Ping-Tung, Taiwan). The purified RNA was then reverse transcribed into the first-strand cDNA using the Revert Aid First-Strand cDNA Synthesis Kit (Thermo Scientific, Waltham, MA, USA). All qPCR reactions were carried out using the […] SYBR® Green qPCR Kit (Willowfort, Nottingham, UK). Differential gene expression was performed using the 2ˆ^−ΔΔCT method utilizing GAPDH as a reference gene.

[6] = system: RAR-γ gene in Caco-2 cells; assay: Gene expression RT-qPCR; settings: Caco-2, IC50 dose, 24 h, relative to 0.1% DMSO, normalized to GAPDH
Procedure: as §3

[7] = system: Caspase-3 gene in Caco-2 cells; assay: Gene expression RT-qPCR; settings: Caco-2, IC50 dose, 24 h, relative to 0.1% DMSO, normalized to GAPDH
Procedure: as §3

[8] = system: CRABPI gene in Caco-2 cells; assay: Gene expression RT-qPCR; settings: Caco-2, IC50 dose, 24 h, relative to 0.1% DMSO, normalized to GAPDH
Procedure: as §3

[9] = system: Cyt-C gene in Caco-2 cells; assay: Gene expression RT-qPCR; settings: Caco-2, IC50 dose, 24 h, relative to 0.1% DMSO, normalized to GAPDH
Procedure: as §3

[10] = system: RAR-α gene in Caco-2 cells; assay: Gene expression RT-qPCR; settings: Caco-2, IC50 dose, 24 h, relative to 0.1% DMSO, normalized to GAPDH
Procedure: as §3

[11] = system: RAR-α, RAR-β, RAR-γ proteins in Caco-2 cells; assay: Western blotting of RAR proteins; settings: Caco-2, IC50 dose, 24 h, normalized to β-actin
Procedure: Using the previously outlined protocol, the western blot technique was used to determine the expression of RAR-α (Cat. No. E6Z6 K, cell signaling, USA), RAR-β (Cat. No. PP-H4338-00, R&D systems, USA) and RAR- γ (Cat. No. D3 A4, cell signaling, USA) in Caco-2 cells. […] Following incubation, floating adhered cells were separated and lysed. The Caco-2 cell lysate was immediately collected, subjected to sonication, and centrifuged for 15 min at 12,000 × g. The total soluble protein content was measured colorimetrically using the PierceTM 660 nm Assay (Thermo Scientific, Waltham, MA, USA) after the resultant supernatant was separated. The Gel documentation system (Geldoc-it, UVP, England) was applied for data analysis using Totallab analysis software (Ver.1.0.1) (ww.totallab.com).

MCF-7 = assay: MTT anti-proliferative assay; settings: Homo sapiens, MCF7; MCF-7, MTT, 24 h, mean ± SEM
Procedure: as §1

HCT-116 = assay: MTT anti-proliferative assay; settings: Homo sapiens; HCT-116, MTT, 24 h, mean ± SEM
Procedure: as §1

MDA-MB231 = assay: MTT anti-proliferative assay; settings: Homo sapiens, MDA-MB-231, 24 h, mean ± SEM
Procedure: as §1

PC-3 = assay: MTT anti-proliferative assay; settings: Homo sapiens; PC-3, MTT, 24 h, mean ± SEM
Procedure: as §1

Caco-2 = assay: MTT anti-proliferative assay; settings: Homo sapiens; Caco-2, MTT, 24 h, mean ± SEM
Procedure: as §1

HepG-2 = assay: MTT anti-proliferative assay; settings: Homo sapiens, HepG2; HepG-2, MTT, 24 h, mean ± SEM
Procedure: as §1

[12] = system: total ATPase in Caco-2 cells; assay: Total ATPase activity, malachite green colorimetric; settings: Caco-2, IC50 dose, 24 h; 0.1% DMSO control normalized to 100%
Procedure: as §2

IC50 (MCF-7): 53.1 ± 5.4 µM
IC50 (HCT-116): 36.9 ± 2.4 µM
IC50 (MDA-MB231): 2280 ± 200 nM
IC50 (PC-3): 2710 ± 200 nM
IC50 (Caco-2): 15 ± 0.4 µM
SMILES: O=C(O)c1ccc2cc(-c3ccc4c(c3)CCCO4)ccc2c1 [Compound 4b, 6-(chroman-6-yl)−2-naphthoic acid]
% G0-G1 (Caco-2 cancer cells [1]): 17.69 ± 3.2%
% G2M (Caco-2 cancer cells [1]): 1.76 ± 0.1%
% S (Caco-2 cancer cells [1]): 4.16 ± 1.5%
% SubG0-G1 (Caco-2 cancer cells [1]): 76.81% and 76.81 ± 6.7 %
IC50 [2]: 33.5 ± 3.4 µM
% Early apoptotic cells (LR) (Caco-2 cancer cells [3]): 61.41% and 61.41 ± 5.3 %
% Late apoptotic cells (UL) (Caco-2 cancer cells [3]): 0.09%
% Necrotic cells (UR) (Caco-2 cancer cells [3]): 38.12 ± 2.8 %
% Viable cells (LL) (Caco-2 cancer cells [3]): 0.37%
ca+2-independent ATPase activity [4]: 36.1%
CRABPII gene expression fold change [5]: 2.0 ± 0.1 fold
RAR-γ gene expression fold change [6]: 4.3 ± 0.2 fold
caspase-3 gene expression fold change [7]: 2.3 ± 0.1 fold
CRABPI gene expression fold change [8]: 53.5 ± 2.4 fold
Cyt-C gene expression fold change [9]: 1.7 ± 0.1 fold
RAR-α gene expression fold change [10]: 2.9 ± 0.1 fold
RAR protein expression (western blot) [11]: overexpression of all RAR subtypes
IC50 (HepG-2): 59.5 ± 3.5 µM
total ATPase activity [12]: 34.6%
